The values below come from patent US20230082130A1, “USE OF C[…] TO TREAT OR PREVENT FUNGAL GROWTH OF C. ALBICANS” (Demetrix, Inc., priority 2021, published 2023).

In brackets after ≈: the same amount, converted by molar mass. Where two headings read alike, the source gives them in different places.

The test system of the experiment is C. albicans. Put plainly: minimum inhibitory concentration (MIC) assay against C. albicans. The class given is cell-based, Candida albicans. Conditions: growth inhibition of C. albicans, assay performed by Charles River Laboratories. How it is done:
To determine the ability of the cannabinoid compounds described herein to reduce, inhibit, or eliminate, C. albicans a minimum inhibitory concentration (“MIC”) assay was performed. […] The assay was performed by Charles River Laboratories International (Wilmington, Mass.) in accordance with industry standards.

Setting [1] is: Candida albicans, read-out: MIC.

What is called MIC is the smallest concentration in the dilution series that meets the test's criterion for growth inhibition. As to `CCCCCc1cc(O)c2c(c1)OC(C)(CCC=C(C)C)C=C2` (centres unmarked) [CBC, cannabichromene], the MIC was over 200 mg/L. Moreover, the MIC under setting [1] was over 200 mg/L.
`CCCCCc1cc2c(c(O)c1C(=O)O)C=CC(C)(CCC=C(C)C)O2` (centres unmarked) [CBCA, cannabichromenic acid] registered an MIC of over 200 mg/L.
Molecule `C=C(C)[C@@H]1CCC(C)=C[C@H]1c1c(O)cc(CCCCC)cc1O` [CBD, cannabidol] showed an MIC of 200 mg/L (≈ 636 µM).
On to `C=C(C)[C@@H]1CCC(C)=C[C@H]1c1c(O)cc(CCCCC)c(C(=O)O)c1O` [CBDA, cannabidiolic acid], for which the MIC was over 200 mg/L. Moreover, the MIC under setting [1] is over 200 mg/L.
On to `C=C(C)[C@@H]1CCC(C)=C[C@H]1c1c(O)cc(CCC)cc1O` [CBDV, cannabidivarin], for which, where the note is “Candida albicans”, the MIC is under 25 mg/L.
The molecule `C=C(C)[C@@H]1CCC(C)=C[C@H]1c1c(O)cc(CCC)c(C(=O)O)c1O` [CBDVA, cannabidivarinic acid] gave a minimal inhibitory concentration (MIC) of over 200 mg/L.
Take `CCCCCc1cc(O)c(C/C=C(\C)CCC=C(C)C)c(O)c1` [CBG, cannabigerol]: the MIC is over 200 mg/L. Under setting [1], the MIC was over 200 mg/L.
As for `CCCCc1cc(O)c(CC=C(C)CCC=C(C)C)c(O)c1` [CBG-C4, cannabigerol butyl], the minimal inhibitory concentration (MIC) amounted to 200 mg/L (≈ 661 µM).
Consider `CCCCCc1cc(O)c(C/C=C(\C)CCC=C(C)C)c(O)c1C(=O)O` [CBGA, cannabigerolic acid], for which the MIC was over 200 mg/L. In addition, the minimal inhibitory concentration (MIC) under setting [1] was over 200 mg/L.
The molecule `CCCCc1cc(O)c(C/C=C(\C)CCC=C(C)C)c(O)c1C(=O)O` [CBGA-C4, cannabigerolic acid butyl] displayed an MIC of over 200 mg/L.
As to `CCCc1cc(O)c(C/C=C(\C)CCC=C(C)C)c(O)c1` [CBGV, cannabigerivarin], the MIC was 50 mg/L (≈ 173 µM).
On the same count and under the same terms, in the case of `CCCc1cc(O)c(C/C=C(\C)CCC=C(C)C)c(O)c1C(=O)O` [CBGVA, cannabigerovarinic acid] it was over 200 mg/L.
Take `CCCCCc1cc(O)c2c(c1)OC1(C)CCC3C1C2C3(C)C` (centres unmarked) [CBL, cannabicyclol]: the MIC is over 200 mg/L. Moreover, the MIC under setting [1] was over 200 mg/L.
`CCCCCc1cc2c(c(O)c1C(=O)O)C1C3C(CCC3(C)O2)C1(C)C` (centres unmarked) [CBLA, cannabicyclolic acid] returned an MIC of over 200 mg/L.
In turn, `CCCCCc1cc(O)c2c(c1)OC(C)(C)c1ccc(C)cc1-2` [CBN, cannabinol] had an MIC of over 200 mg/L. Besides, the MIC under setting [1] is over 200 mg/L.
Molecule `CCCCCc1cc2c(c(O)c1C(=O)O)-c1cc(C)ccc1C(C)(C)O2` [CBNA, cannabinolic acid] returned an MIC of over 200 mg/L.
Molecule (+)-cannabidiol [(+)-CBD] gave an MIC of over 200 mg/L.
